Data as given in US5422341A, “Motilin-like polypeptides with gastrointestinal motor stimulating activity” (Ohmeda Pharmaceutical Products Division Inc., priority 1993, dated 1995).
Several values for one entry are separate records, joined by “and”; a condition that tells them apart may be missing. Equal values may be shown once. Where a name gives a salt, the structure may show the parent alone. Square brackets hold non-standard residues; d marks the D form. Peptide text beside a SMILES is read from it. * marks the point of attachment. X1 = C[N+](C)(C)[C@@H](Cc1ccccc1)C(=O)*; NMe2Phe = CN(C)[C@@H](Cc1ccccc1)C(=O)*; NMeF = CN[C@@H](Cc1ccccc1)C(=O)O; Cha = N[C@@H](CC1CCCCC1)C(=O)O

What was measured:
motilin receptor = molecular target: T1, motilin receptor (Oryctolagus cuniculus, UniProt G1T803); test: Determination of motilin receptor binding affinity (displacement of [125I-Tyr7, Nle13]motilin(porcine)); design: species or system rabbit; conditions: negative logarithm of the concentration displacing 50% of [125I-Tyr7, Nle13]motilin(porcine) from rabbit antral smooth muscle membranes; read-out: pIC50 (converted)
T1 construct: from tissue; host or cells: rabbit antral smooth muscle membranes
Method: The motilin receptor binding affinity of the peptides of this invention was determined by using the general procedure of Bormans, Peelers and Vantrappen, Regul. […] Fitting was performed using the iterative least-squares procedure of the SAS-software package (SAS Institute, Inc., Cary, N.C., USA).

[1] = molecular target: segments of rabbit duodenum (Oryctolagus cuniculus, UniProt G1T803); test: Rabbit duodenal smooth muscle strip tissue bath assay; format: cell-based; conditions: negative logarithm of the dose giving 50% of the maximal response to motilin; isotonic contraction of rabbit duodenum segments
Method: The contractile response of segments of rabbit duodenum was determined isotonically in the tissue bath according to the procedure of Depoortere et at., J. Gastrointestinal Motility, 1, 150-159 (1989). The experimental protocol consisted of an equilibration period of 1 hour; a challenge with 10^-4 M acetylcholine followed by a wash-out period; a cumulative dose-response curve of a compound with, at the end, the addition of 10^-7 M motilin; and finally 10^-4 M acetylcholine. If the final response to 10^-4 M acetylcholine differed by more than 5% from the initial response, the results were discarded. The compounds were tested in the concentration range 10^-11 to 10^-4 M. The point corresponding to 50% of the maximal response to motilin (Emax) was determined by fitting the equation E=Emax (1+EC50 /[L]) through the data points. […] The dose giving 50% of the response is expressed using its negative logarithm (pEC50).

segments of rabbit duodenum, sequence (G1T803 1-400): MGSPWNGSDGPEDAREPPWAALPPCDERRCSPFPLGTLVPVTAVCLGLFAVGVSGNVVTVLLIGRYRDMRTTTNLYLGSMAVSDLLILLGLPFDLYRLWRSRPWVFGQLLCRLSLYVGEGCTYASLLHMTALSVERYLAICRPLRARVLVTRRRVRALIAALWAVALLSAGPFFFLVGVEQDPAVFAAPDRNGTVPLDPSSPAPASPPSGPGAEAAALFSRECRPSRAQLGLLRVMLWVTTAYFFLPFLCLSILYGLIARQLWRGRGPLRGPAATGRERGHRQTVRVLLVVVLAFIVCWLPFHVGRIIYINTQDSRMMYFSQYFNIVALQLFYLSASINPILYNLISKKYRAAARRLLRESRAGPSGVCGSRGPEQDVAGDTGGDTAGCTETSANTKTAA
T1 sequence (G1T803 1-400): as above

| IC50 (motilin receptor) | pEC50 [1] | Compound |
| --- | --- | --- |
| 8.91 nM | 7.29 | CC[C@H](C)[C@H](NC(=O)[C@@H]1CCCN1C(=O)[C@@H](NC(=O)[C@@H](N)Cc1ccccc1)C(C)C)C(=O)N[C@@H](Cc1ccccc1)C(=O)N[C@H](C(=O)N[C@@H](Cc1ccc(O)cc1)C(=O)NCC(=O)N[C@@H](CCC(=O)O)C(=O)N[C@@H](CC(C)C)C(=O)N[C@@H](CCC(N)=O)C(=O)N[C@H](C)C(=O)N[C@@H](CC(C)C)C(=O)N[C@@H](CCC(N)=O)C(=O)O)[C@@H](C)O [[D-Ala^12, Leu^13]pMOT(1-14)] (H-FVPIFTYGELQ[dA]LQ-OH) |
| 1.95 nM | 7.76 | CC[C@H](C)[C@H](NC(=O)[C@H](C)NC(=O)[C@@H](NC(=O)[C@@H](N)Cc1ccccc1)C(C)C)C(=O)N[C@@H](Cc1ccccc1)C(=O)N[C@H](C(=O)N[C@@H](Cc1ccc(O)cc1)C(=O)NCC(=O)N[C@@H](CCC(=O)O)C(=O)N[C@@H](CC(C)C)C(=O)N[C@@H](CCC(N)=O)C(=O)N[C@H](CCCNC(=N)N)C(=O)N[C@@H](CC(C)C)C(=O)N[C@@H](CCC(N)=O)C(N)=O)[C@@H](C)O (H-FVAIFTYGELQ[dR]LQ-NH2) |
| 3.55 nM | 7.69 | CC[C@H](C)[C@H](NC(=O)[C@@H]1CCCN1C(=O)[C@@H](NC(=O)[C@H](Cc1ccccc1)[N+](C)(C)C)C(C)C)C(=O)N[C@@H](Cc1ccccc1)C(=O)N[C@H](C(=O)N[C@@H](Cc1ccc(O)cc1)C(=O)NCC(=O)N[C@@H](CCC(=O)O)C(=O)N[C@@H](CC(C)C)C(=O)N[C@@H](CCC(N)=O)C(=O)N[C@@H](CCCNC(=N)N)C(=O)N[C@@H](CC(C)C)C(=O)N[C@@H](CCC(N)=O)C(=O)O)[C@@H](C)O [[Me3 N^+ Phe^1, Leu^13]pMOT(1-14), [1-N,N,N-Trimethylphenylalanine, 13-leucine]motilin-(1-14)-peptide (Porcine) Bis-trifluoroacetate Salt] (X1-VPIFTYGELQRLQ-OH) |
| 1.95 nM | 7.76 | CC[C@H](C)[C@H](NC(=O)[C@@H]1CCCN1C(=O)[C@@H](NC(=O)[C@H](Cc1ccccc1)N(C)C)C(C)C)C(=O)N[C@@H](Cc1ccccc1)C(=O)N[C@H](C(=O)N[C@@H](Cc1ccc(O)cc1)C(=O)NCC(=O)N[C@@H](CCC(=O)O)C(=O)N[C@@H](CC(C)C)C(=O)N[C@@H](C)C(=O)N[C@H](CCCNC(=N)N)C(=O)N[C@@H](CC(C)C)C(=O)N[C@@H](CCC(N)=O)C(N)=O)[C@@H](C)O (NMe2Phe-VPIFTYGELA[dR]LQ-NH2) |
| 1.02 nM | 7.95 | CC[C@H](C)[C@H](NC(=O)[C@@H]1CCCN1C(=O)[C@@H](NC(=O)[C@H](Cc1ccccc1)NC)C(C)C)C(=O)N[C@@H](Cc1ccccc1)C(=O)N[C@H](C(=O)N[C@@H](Cc1ccc(O)cc1)C(=O)NCC(=O)N[C@@H](CCC(=O)O)C(=O)N[C@@H](CC(C)C)C(=O)N[C@@H](CCC(N)=O)C(=O)N[C@H](CCCNC(=N)N)C(=O)N[C@@H](CC(C)C)C(=O)N[C@@H](CCC(N)=O)C(N)=O)[C@@H](C)O (H-[NMeF]VPIFTYGELQ[dR]LQ-NH2) |
| 1.95 nM | 7.31 | CC[C@H](C)[C@H](NC(=O)[C@H](C)NC(=O)[C@@H](NC(=O)[C@H](Cc1ccccc1)[N+](C)(C)C)C(C)C)C(=O)N[C@@H](Cc1ccccc1)C(=O)N[C@H](C(=O)N[C@@H](Cc1ccc(O)cc1)C(=O)NCC(=O)N[C@@H](CCC(=O)O)C(=O)N[C@@H](CC(C)C)C(=O)N[C@@H](C)C(=O)N[C@H](CCCNC(=N)N)C(=O)N[C@@H](CC(C)C)C(=O)N[C@@H](CCC(N)=O)C(N)=O)[C@@H](C)O (X1-VAIFTYGELA[dR]LQ-NH2) |
| 1.41 nM | 7.20 | CC[C@H](C)[C@H](NC(=O)[C@H](C)NC(=O)[C@@H](NC(=O)[C@H](Cc1ccccc1)[N+](C)(C)C)C(C)C)C(=O)N[C@@H](Cc1ccccc1)C(=O)N[C@H](C(=O)N[C@@H](Cc1ccc(O)cc1)C(=O)NCC(=O)N[C@@H](CCC(=O)O)C(=O)N[C@@H](CC(C)C)C(=O)N[C@@H](CCC(N)=O)C(=O)N[C@H](CCCNC(=N)N)C(=O)N[C@@H](CC(C)C)C(=O)N[C@H](CCC(N)=O)C(N)=O)[C@@H](C)O (X1-VAIFTYGELQ[dR]L[dQ]-NH2) |
| 1.78 nM | 7.60 | CC[C@H](C)[C@H](NC(=O)[C@@H]1CCCN1C(=O)[C@@H](NC(=O)[C@@H](N)CC1CCCCC1)C(C)C)C(=O)N[C@@H](Cc1ccccc1)C(=O)N[C@H](C(=O)N[C@@H](Cc1ccc(O)cc1)C(=O)NCC(=O)N[C@@H](CCC(=O)O)C(=O)N[C@@H](CC(C)C)C(=O)N[C@@H](CCC(N)=O)C(=O)N[C@H](CCCNC(=N)N)C(=O)N[C@@H](CC(C)C)C(=O)N[C@@H](CCC(N)=O)C(=O)O)[C@@H](C)O [[Cha^1, D-Arg^12, Leu^13]pMOT(1-14)] (H-[Cha]VPIFTYGELQ[dR]LQ-OH) |
| 1.66 nM | 7.67 | CC[C@H](C)[C@H](NC(=O)[C@@H]1CCCN1C(=O)[C@@H](NC(=O)[C@@H](N)Cc1ccccc1)C(C)C)C(=O)N[C@@H](Cc1ccccc1)C(=O)N[C@H](C(=O)N[C@@H](Cc1ccc(O)cc1)C(=O)NCC(=O)N[C@@H](CCC(=O)O)C(=O)N[C@@H](CC(C)C)C(=O)N[C@@H](CCC(N)=O)C(=O)N[C@H](CCCNC(=N)N)C(=O)N[C@@H](CC(C)C)C(=O)N[C@@H](CCC(N)=O)C(=O)N[C@@H](CCC(=O)O)C(=O)N[C@@H](CCCCN)C(=O)N[C@@H](CCC(=O)O)C(=O)N[C@@H](CCCNC(=N)N)C(=O)N[C@@H](CC(N)=O)C(=O)N[C@@H](CCCCN)C(=O)NCC(=O)N[C@@H](CCC(N)=O)C(=O)O)[C@@H](C)O [[D-Arg^12, Leu^13]pMOT(1-22)] |
| 2.45 nM | 7.25 | CC[C@H](C)[C@H](NC(=O)[C@@H]1CCCN1C(=O)[C@@H](NC(=O)[C@H](Cc1ccccc1)[N+](C)(C)C)C(C)C)C(=O)N[C@@H](Cc1ccccc1)C(=O)N[C@H](C(=O)N[C@@H](Cc1ccc(O)cc1)C(=O)NCC(=O)N[C@@H](CCC(=O)O)C(=O)N[C@@H](CC(C)C)C(=O)N[C@@H](C)C(=O)N[C@H](CCCNC(=N)N)C(=O)N[C@@H](CC(C)C)C(=O)N[C@H](CCC(N)=O)C(N)=O)[C@@H](C)O (X1-VPIFTYGELA[dR]L[dQ]-NH2) |
| 3.55 nM and 2.14 nM | 7.52 | CC[C@H](C)[C@H](NC(=O)[C@@H]1CCCN1C(=O)[C@@H](NC(=O)[C@H](Cc1ccccc1)[N+](C)(C)C)C(C)C)C(=O)N[C@@H](Cc1ccccc1)C(=O)N[C@H](C(=O)N[C@@H](Cc1ccc(O)cc1)C(=O)NCC(=O)N[C@@H](CCC(=O)O)C(=O)N[C@@H](CC(C)C)C(=O)N[C@@H](CCC(N)=O)C(=O)N[C@H](CCCNC(=N)N)C(=O)N[C@@H](CC(C)C)C(=O)N[C@@H](CCC(N)=O)C(=O)O)[C@@H](C)O (X1-VPIFTYGELQ[dR]LQ-OH) |
| 8.51 nM | 6.92 | CC[C@H](C)[C@H](NC(=O)[C@@H]1CCCN1C(=O)[C@@H](NC(=O)[C@@H](N)Cc1ccccc1)C(C)C)C(=O)N[C@@H](Cc1ccccc1)C(=O)N[C@H](C(=O)N[C@@H](Cc1ccccc1)C(=O)NCC(=O)N[C@@H](CCC(=O)O)C(=O)N[C@@H](CC(C)C)C(=O)N[C@@H](CCC(N)=O)C(=O)N[C@H](CCCNC(=N)N)C(=O)N[C@@H](CC(C)C)C(=O)N[C@@H](CCC(N)=O)C(=O)O)[C@@H](C)O [[Phe^7, D-Arg^12, Leu^13]pMOT(1-14)] (H-FVPIFTFGELQ[dR]LQ-OH) |
